Data from PMC6874179, “Development of Macrocycle Kinase Inhibitors for ALK2 Using Fibrodysplasia Ossificans Progressiva‐Derived Endothelial Cells” (JBMR Plus, 2019).

Columns and labels:
FLT4 = molecular target: T1, FLT4 (Homo sapiens, UniProt P35916); assay: Proqinase Kinase profiling; assay type: biochemical; conditions: read-out: % inhibition at 100nM
T1 construct: purchased DiscoverX

MARK4 = molecular target: T2, MARK4 (Homo sapiens, UniProt Q96L34); assay: Proqinase Kinase profiling; assay type: biochemical; conditions: read-out: % inhibition at 100nM
T2 construct: purchased DiscoverX

MAP3K9 = molecular target: T3, MAP3K9 (Homo sapiens, UniProt P80192); assay: Proqinase Kinase profiling; assay type: biochemical; conditions: read-out: % inhibition at 100nM
T3 construct: purchased DiscoverX

KIT_D816H = molecular target: T4, KIT_D816H (Homo sapiens, UniProt P10721, D816H); assay: Proqinase Kinase profiling; assay type: biochemical; conditions: read-out: % inhibition at 100nM
T4 construct: purchased DiscoverX

KIT_V560G = molecular target: T5, KIT_V560G (Homo sapiens, UniProt P10721, V560G); assay: Proqinase Kinase profiling; assay type: biochemical; conditions: read-out: % inhibition at 100nM
T5 construct: purchased DiscoverX

PRKACA = molecular target: T6, PRKACA (Homo sapiens, UniProt P17612); assay: Proqinase Kinase profiling; assay type: biochemical; conditions: read-out: % inhibition at 100nM
T6 construct: purchased DiscoverX

NEK1 = molecular target: T7, NEK1 (Homo sapiens, UniProt Q96PY6); assay: Proqinase Kinase profiling; assay type: biochemical; conditions: read-out: % inhibition at 100nM
T7 construct: purchased DiscoverX

ROS1 = molecular target: T8, ROS1 (Homo sapiens, UniProt P08922); assay: Proqinase Kinase profiling; assay type: biochemical; conditions: read-out: % inhibition at 100nM
T8 construct: purchased DiscoverX

ABL1_Q252H = molecular target: T9, ABL1_Q252H (Homo sapiens, UniProt P00519, Q252H); assay: Proqinase Kinase profiling; assay type: biochemical; conditions: read-out: % inhibition at 100nM
T9 construct: purchased DiscoverX

KDR = molecular target: T10, KDR (Homo sapiens, UniProt P35968); assay: Proqinase Kinase profiling; assay type: biochemical; conditions: read-out: % inhibition at 100nM
T10 construct: purchased DiscoverX

MET_D1228H = molecular target: T11, MET_D1228H (Homo sapiens, UniProt P08581, D1228H); assay: Proqinase Kinase profiling; assay type: biochemical; conditions: read-out: % inhibition at 100nM
T11 construct: purchased DiscoverX

EPHA7 = molecular target: T12, EPHA7 (Homo sapiens, UniProt Q15375); assay: Proqinase Kinase profiling; assay type: biochemical; conditions: read-out: % inhibition at 100nM
T12 construct: purchased DiscoverX

TAOK3 = molecular target: T13, TAOK3 (Homo sapiens, UniProt Q9H2K8); assay: Proqinase Kinase profiling; assay type: biochemical; conditions: read-out: % inhibition at 100nM
T13 construct: purchased DiscoverX

PRKCZ = molecular target: T14, PRKCZ (Homo sapiens, UniProt Q05513); assay: Proqinase Kinase profiling; assay type: biochemical; conditions: read-out: % inhibition at 100nM
T14 construct: purchased DiscoverX

RPS6KA5 = molecular target: T15, RPS6KA5 (Homo sapiens, UniProt O75582); assay: Proqinase Kinase profiling; assay type: biochemical; conditions: read-out: % inhibition at 100nM
T15 construct: purchased DiscoverX

FGFR3_K650M = molecular target: T16, FGFR3_K650M (Homo sapiens, UniProt P22607, K650M); assay: Proqinase Kinase profiling; assay type: biochemical; conditions: read-out: % inhibition at 100nM
T16 construct: purchased DiscoverX

HIPK1 = molecular target: T17, HIPK1 (Homo sapiens, UniProt Q86Z02); assay: Proqinase Kinase profiling; assay type: biochemical; conditions: read-out: % inhibition at 100nM
T17 construct: purchased DiscoverX

RET_R813Q = molecular target: T18, RET_R813Q (Homo sapiens, UniProt P07949, R813Q); assay: Proqinase Kinase profiling; assay type: biochemical; conditions: read-out: % inhibition at 100nM
T18 construct: purchased DiscoverX

MAPK8 = molecular target: T19, MAPK8 (Homo sapiens, UniProt P45983); assay: Proqinase Kinase profiling; assay type: biochemical; conditions: read-out: % inhibition at 100nM
T19 construct: purchased DiscoverX

EIF2AK3 = molecular target: T20, EIF2AK3 (Homo sapiens, UniProt Q9NZJ5); assay: Proqinase Kinase profiling; assay type: biochemical; conditions: read-out: % inhibition at 100nM
T20 construct: purchased DiscoverX

RET_M918T = molecular target: T21, RET_M918T (Homo sapiens, UniProt P07949, M918T); assay: Proqinase Kinase profiling; assay type: biochemical; conditions: read-out: % inhibition at 100nM
T21 construct: purchased DiscoverX

ABL1_G250E = molecular target: T22, ABL1_G250E (Homo sapiens, UniProt P00519, G250E); assay: Proqinase Kinase profiling; assay type: biochemical; conditions: read-out: % inhibition at 100nM
T22 construct: purchased DiscoverX

LIMK1 = molecular target: T23, LIMK1 (Homo sapiens, UniProt P53667); assay: Proqinase Kinase profiling; assay type: biochemical; conditions: read-out: % inhibition at 100nM
T23 construct: purchased DiscoverX

PLK1 = molecular target: T24, PLK1 (Homo sapiens, UniProt P53350); assay: Proqinase Kinase profiling; assay type: biochemical; conditions: read-out: % inhibition at 100nM
T24 construct: purchased DiscoverX

TNK2 = molecular target: T25, TNK2 (Homo sapiens, UniProt Q07912); assay: Proqinase Kinase profiling; assay type: biochemical; conditions: read-out: % inhibition at 100nM
T25 construct: purchased DiscoverX

CDK5_p25 = molecular target: T26, CDK5_p25 (Homo sapiens, UniProt Q00535); assay: Proqinase Kinase profiling; assay type: biochemical; conditions: read-out: % inhibition at 100nM
T26 construct: purchased DiscoverX

CDK1_cyclinA2 = molecular target: T27, CDK1_cyclinA2 (Homo sapiens, UniProt P06493); assay: Proqinase Kinase profiling; assay type: biochemical; conditions: read-out: % inhibition at 100nM
T27 construct: purchased DiscoverX

ALK4 = molecular target: T28, ALK4 (Homo sapiens, UniProt P36896); assay: DiscoverX Kd determination; assay type: binding
T28 construct: T7 phage fusion (or DNA tag for qPCR if made in HEK-293); purchased DiscoverX; host or cells: E. coli (T7 phage) or HEK-293
Method: (§1) DiscoverX Kd determination: For most assays, kinase-tagged T7 phage strains were prepared in an E. coli host derived from the BL21 strain. E. coli were grown to log-phase and infected with T7 phage and incubated with shaking at 32°C until lysis. The lysates were centrifuged and filtered to remove cell debris. The remaining kinases were produced in HEK-293 cells and subsequently tagged with DNA for qPCR detection. […] The liganded beads were blocked with excess biotin and washed with blocking buffer (SeaBlock (Pierce), 1% BSA, 0.05% Tween 20, 1 mM DTT) to remove unbound ligand and to reduce non-specific binding. […] Kds were determined using an 11-point 3-fold compound dilution series with three DMSO control points. […] The compounds were then diluted directly into the assays such that the final concentration of DMSO was 0.9%. All reactions performed in polypropylene 384-well plate. Each was a final volume of 0.02 ml. […] The kinase concentration in the eluates was measured by qPCR. An 11-point 3-fold serial dilution of each test compound was prepared in 100% DMSO at 100x final test concentration and subsequently diluted to 1x in the assay (final DMSO concentration = 1%). Most Kds were determined using a compound top concentration = 30.000 nM. […] Binding constants (Kds) were calculated with a standard dose-response curve using the Hill equation: Response = Background + Signal – Background 1 + (KdHill Slope / DoseHill Slope). The Hill Slope was set to -1. Curves were fitted using a non-linear least square fit with the Levenberg-Marquardt algorithm.

ALK5 = molecular target: T29, ALK5 (Homo sapiens, UniProt P36897); assay: DiscoverX Kd determination; assay type: binding
T29 construct: T7 phage fusion (or DNA tag for qPCR if made in HEK-293); purchased DiscoverX; host or cells: E. coli (T7 phage) or HEK-293
Method: as §1

ALK1 = molecular target: T30, ALK1 (Homo sapiens, UniProt P37023); assay: DiscoverX Kd determination; assay type: binding
T30 construct: T7 phage fusion (or DNA tag for qPCR if made in HEK-293); purchased DiscoverX; host or cells: E. coli (T7 phage) or HEK-293
Method: as §1

ALK3 = molecular target: T31, ALK3 (Homo sapiens, UniProt P36894); assay: DiscoverX Kd determination; assay type: binding
T31 construct: T7 phage fusion (or DNA tag for qPCR if made in HEK-293); purchased DiscoverX; host or cells: E. coli (T7 phage) or HEK-293
Method: as §1

ALK2 = molecular target: T32, ALK2 (Homo sapiens, UniProt Q04771); assay: DiscoverX Kd determination; assay type: binding
T32 construct: T7 phage fusion (or DNA tag for qPCR if made in HEK-293); purchased DiscoverX; host or cells: E. coli (T7 phage) or HEK-293
Method: as §1

EEF2K = molecular target: T33, EEF2K (Homo sapiens, UniProt O00418); assay: Proqinase Kinase profiling; assay type: biochemical; conditions: read-out: % inhibition at 100nM
T33 construct: purchased DiscoverX

FYN = molecular target: T34, FYN (Homo sapiens, UniProt P06241); assay: Proqinase Kinase profiling; assay type: biochemical; conditions: read-out: % inhibition at 100nM
T34 construct: purchased DiscoverX

T4 sequence (P10721 26-976 D816H): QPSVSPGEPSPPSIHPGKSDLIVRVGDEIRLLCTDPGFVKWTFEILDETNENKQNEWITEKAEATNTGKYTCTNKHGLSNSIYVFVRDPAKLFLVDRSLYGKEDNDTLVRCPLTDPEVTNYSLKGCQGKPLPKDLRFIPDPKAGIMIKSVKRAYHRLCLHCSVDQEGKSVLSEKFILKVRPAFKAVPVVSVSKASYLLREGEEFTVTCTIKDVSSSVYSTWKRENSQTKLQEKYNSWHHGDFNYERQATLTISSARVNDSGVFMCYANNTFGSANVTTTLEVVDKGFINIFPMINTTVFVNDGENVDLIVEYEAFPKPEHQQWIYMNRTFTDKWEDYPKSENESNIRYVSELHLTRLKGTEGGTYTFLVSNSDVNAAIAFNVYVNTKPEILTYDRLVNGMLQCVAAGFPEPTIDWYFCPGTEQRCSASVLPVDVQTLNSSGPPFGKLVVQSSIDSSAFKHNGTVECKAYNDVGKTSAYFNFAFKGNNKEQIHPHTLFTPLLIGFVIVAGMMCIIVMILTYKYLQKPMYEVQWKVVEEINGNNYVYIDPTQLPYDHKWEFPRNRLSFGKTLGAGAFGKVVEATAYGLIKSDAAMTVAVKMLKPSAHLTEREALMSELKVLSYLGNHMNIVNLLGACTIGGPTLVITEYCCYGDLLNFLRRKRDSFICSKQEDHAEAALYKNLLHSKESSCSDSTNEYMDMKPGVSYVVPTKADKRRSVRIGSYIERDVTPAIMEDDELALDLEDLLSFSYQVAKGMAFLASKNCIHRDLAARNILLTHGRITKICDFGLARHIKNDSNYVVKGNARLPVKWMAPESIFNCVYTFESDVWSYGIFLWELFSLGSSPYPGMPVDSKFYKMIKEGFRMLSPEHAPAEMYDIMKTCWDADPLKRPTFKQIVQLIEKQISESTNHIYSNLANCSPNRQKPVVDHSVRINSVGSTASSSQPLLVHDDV
T13 sequence (Q9H2K8 whole entry): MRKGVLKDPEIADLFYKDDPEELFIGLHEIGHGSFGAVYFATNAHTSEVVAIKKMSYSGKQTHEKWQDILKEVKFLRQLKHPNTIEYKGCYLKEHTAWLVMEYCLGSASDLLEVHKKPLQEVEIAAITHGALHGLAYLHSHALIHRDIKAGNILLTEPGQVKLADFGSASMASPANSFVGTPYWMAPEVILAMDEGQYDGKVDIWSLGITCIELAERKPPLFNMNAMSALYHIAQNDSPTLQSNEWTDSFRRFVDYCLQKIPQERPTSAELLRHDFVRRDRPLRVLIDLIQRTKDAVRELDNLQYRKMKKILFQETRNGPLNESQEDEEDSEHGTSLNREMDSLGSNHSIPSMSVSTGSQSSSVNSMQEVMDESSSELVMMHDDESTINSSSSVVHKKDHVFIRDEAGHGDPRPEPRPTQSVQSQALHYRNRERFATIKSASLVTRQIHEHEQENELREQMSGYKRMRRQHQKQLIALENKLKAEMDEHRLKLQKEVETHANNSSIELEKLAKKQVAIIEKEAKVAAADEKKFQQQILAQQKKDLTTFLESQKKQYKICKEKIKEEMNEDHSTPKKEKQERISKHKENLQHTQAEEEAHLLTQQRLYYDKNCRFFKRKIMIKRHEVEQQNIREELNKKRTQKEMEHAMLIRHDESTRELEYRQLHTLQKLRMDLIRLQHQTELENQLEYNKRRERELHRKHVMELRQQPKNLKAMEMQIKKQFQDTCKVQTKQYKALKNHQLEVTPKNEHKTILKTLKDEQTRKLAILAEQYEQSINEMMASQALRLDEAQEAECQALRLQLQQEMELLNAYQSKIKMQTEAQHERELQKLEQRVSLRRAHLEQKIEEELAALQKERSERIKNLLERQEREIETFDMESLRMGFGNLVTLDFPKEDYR
T18 sequence (P07949 29-1114 R813Q): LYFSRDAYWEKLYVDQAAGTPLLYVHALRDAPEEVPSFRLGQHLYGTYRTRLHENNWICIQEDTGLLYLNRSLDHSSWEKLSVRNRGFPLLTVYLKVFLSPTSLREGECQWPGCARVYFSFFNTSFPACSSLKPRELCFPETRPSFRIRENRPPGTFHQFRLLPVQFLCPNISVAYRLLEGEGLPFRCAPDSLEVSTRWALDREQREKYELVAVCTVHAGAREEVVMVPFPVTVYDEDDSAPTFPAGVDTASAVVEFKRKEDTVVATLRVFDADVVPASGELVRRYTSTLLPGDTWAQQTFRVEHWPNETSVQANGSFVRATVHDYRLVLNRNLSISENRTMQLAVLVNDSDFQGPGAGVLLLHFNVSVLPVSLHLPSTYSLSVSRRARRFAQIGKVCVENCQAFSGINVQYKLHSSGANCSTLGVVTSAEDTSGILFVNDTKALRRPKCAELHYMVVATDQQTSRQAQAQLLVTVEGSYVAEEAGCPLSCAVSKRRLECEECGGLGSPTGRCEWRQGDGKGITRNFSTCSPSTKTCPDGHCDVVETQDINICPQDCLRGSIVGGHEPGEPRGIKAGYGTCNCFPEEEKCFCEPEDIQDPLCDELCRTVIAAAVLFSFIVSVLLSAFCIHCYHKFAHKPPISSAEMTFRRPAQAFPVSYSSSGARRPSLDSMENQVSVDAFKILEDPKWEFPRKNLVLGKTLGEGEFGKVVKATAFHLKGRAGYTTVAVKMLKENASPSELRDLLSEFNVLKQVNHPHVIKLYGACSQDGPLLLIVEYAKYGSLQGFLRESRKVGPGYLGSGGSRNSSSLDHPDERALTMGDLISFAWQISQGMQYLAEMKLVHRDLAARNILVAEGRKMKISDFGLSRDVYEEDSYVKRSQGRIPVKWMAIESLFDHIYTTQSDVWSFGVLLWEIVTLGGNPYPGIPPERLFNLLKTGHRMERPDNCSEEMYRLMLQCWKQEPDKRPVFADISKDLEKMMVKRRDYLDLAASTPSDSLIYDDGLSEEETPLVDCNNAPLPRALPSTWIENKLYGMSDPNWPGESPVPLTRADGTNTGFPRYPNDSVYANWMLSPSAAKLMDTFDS
T21 sequence (P07949 29-1114 M918T): as the sequence (P07949 29-1114 R813Q) above, with Q785R, M890T counted along it
T26 sequence (Q00535 whole entry): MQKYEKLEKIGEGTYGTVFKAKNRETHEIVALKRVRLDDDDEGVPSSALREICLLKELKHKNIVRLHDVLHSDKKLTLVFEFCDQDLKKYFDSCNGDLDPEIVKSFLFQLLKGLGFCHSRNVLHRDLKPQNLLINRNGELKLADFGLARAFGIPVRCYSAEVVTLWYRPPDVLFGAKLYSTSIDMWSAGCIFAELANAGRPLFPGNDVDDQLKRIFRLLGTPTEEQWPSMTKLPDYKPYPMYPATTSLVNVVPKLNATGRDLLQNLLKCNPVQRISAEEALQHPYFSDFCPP
T26 sequence (Q15078 99-307 partner limits assumed): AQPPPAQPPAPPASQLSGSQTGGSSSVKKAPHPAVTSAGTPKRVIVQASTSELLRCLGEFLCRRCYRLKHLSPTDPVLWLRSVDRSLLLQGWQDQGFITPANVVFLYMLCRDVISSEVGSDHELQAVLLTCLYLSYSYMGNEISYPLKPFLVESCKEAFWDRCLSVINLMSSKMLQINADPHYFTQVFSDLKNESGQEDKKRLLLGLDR
T29 sequence (P36897 34-503): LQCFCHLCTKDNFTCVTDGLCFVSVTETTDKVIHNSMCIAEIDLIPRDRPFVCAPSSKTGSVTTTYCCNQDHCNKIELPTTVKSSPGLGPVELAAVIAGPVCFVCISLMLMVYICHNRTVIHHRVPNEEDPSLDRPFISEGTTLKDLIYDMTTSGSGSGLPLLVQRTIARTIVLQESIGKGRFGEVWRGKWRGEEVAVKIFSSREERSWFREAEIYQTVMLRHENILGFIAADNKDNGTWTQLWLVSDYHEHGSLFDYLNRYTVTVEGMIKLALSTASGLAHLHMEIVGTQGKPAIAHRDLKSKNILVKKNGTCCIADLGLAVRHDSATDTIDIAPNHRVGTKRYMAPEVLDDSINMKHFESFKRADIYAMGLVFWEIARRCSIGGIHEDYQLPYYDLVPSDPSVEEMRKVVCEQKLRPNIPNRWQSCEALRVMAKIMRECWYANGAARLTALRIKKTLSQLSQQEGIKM
T15 sequence (O75582 whole entry): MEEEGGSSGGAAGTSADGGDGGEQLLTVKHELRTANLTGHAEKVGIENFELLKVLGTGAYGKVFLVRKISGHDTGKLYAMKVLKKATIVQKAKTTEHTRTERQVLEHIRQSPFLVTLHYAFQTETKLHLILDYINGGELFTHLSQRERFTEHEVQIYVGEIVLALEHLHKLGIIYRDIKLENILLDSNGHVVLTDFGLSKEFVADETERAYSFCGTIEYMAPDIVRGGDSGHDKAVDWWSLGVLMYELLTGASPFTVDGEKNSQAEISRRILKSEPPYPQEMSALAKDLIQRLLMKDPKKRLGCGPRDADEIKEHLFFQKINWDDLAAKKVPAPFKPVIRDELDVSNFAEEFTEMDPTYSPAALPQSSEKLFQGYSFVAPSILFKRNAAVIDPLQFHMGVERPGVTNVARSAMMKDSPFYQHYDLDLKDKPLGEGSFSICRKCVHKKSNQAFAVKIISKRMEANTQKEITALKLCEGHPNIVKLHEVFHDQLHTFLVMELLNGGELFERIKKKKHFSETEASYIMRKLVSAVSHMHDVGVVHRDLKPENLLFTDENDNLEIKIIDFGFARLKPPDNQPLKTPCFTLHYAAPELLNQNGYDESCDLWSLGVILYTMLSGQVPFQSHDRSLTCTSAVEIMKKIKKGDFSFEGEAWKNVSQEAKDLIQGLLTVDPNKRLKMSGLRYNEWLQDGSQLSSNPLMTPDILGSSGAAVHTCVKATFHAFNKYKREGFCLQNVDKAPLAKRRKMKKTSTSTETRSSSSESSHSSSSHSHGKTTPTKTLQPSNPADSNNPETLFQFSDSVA
T5 sequence (P10721 26-976 V560G): as the sequence (P10721 26-976 D816H) above, with V535G, H791D counted along it

SMILES | inhibition at 0.1 µM (FLT4) | inhibition at 0.1 µM (MARK4) | inhibition at 0.1 µM (MAP3K9) | inhibition at 0.1 µM (KIT_D816H) | inhibition at 0.1 µM (KIT_V560G) | inhibition at 0.1 µM (PRKACA) | inhibition at 0.1 µM (NEK1) | inhibition at 0.1 µM (ROS1) | inhibition at 0.1 µM (ABL1_Q252H) | inhibition at 0.1 µM (KDR) | inhibition at 0.1 µM (MET_D1228H) | inhibition at 0.1 µM (EPHA7) | inhibition at 0.1 µM (TAOK3) | inhibition at 0.1 µM (PRKCZ) | inhibition at 0.1 µM (RPS6KA5) | inhibition at 0.1 µM (FGFR3_K650M) | inhibition at 0.1 µM (HIPK1) | inhibition at 0.1 µM (RET_R813Q) | inhibition at 0.1 µM (MAPK8) | inhibition at 0.1 µM (EIF2AK3) | also measured
Clc1cc2cc(c1)-c1cnn3ccc(nc13)NCCOCCO2 [OD36] | 44% | 13% | 13% | 32% | 19% | -3% | 14% | 7% | 33% | 32% | 8% | 23% | 10% | -3% | -3% | 2% | 8% | 45% | -6% | 1% | inhibition at 0.1 µM (RET_M918T): 33%; inhibition at 0.1 µM (ABL1_G250E): 5%; inhibition at 0.1 µM (LIMK1): 16%; inhibition at 0.1 µM (PLK1): 7%; inhibition at 0.1 µM (TNK2): 17%; inhibition at 0.1 µM (CDK5_p25): 10%; inhibition at 0.1 µM (CDK1_cyclinA2): 11%; Kd (ALK4): 3000 nM; Kd (ALK5): 3000 nM; Kd (ALK1): 90 nM; Kd (ALK3): 3000 nM; Kd (ALK2): 37 nM; inhibition at 0.1 µM (EEF2K): -9%; inhibition at 0.1 µM (FYN): 59%
Cc1cc2cc(c1)-c1cnn3ccc(nc13)NCCNC(=O)CCN(C)C2 [OD52] | -13% | -4% | 4% | -14% | -21% | -7% | -4% | 5% | 1% | -14% | -11% | -18% | -1% | 4% | 7% | -2% | 0% | 37% | -9% | -14% | inhibition at 0.1 µM (RET_M918T): 33%; inhibition at 0.1 µM (ABL1_G250E): 6%; inhibition at 0.1 µM (LIMK1): -5%; inhibition at 0.1 µM (PLK1): -1%; inhibition at 0.1 µM (TNK2): -20%; inhibition at 0.1 µM (CDK5_p25): -2%; inhibition at 0.1 µM (CDK1_cyclinA2): 1%; Kd (ALK4): 260 nM; Kd (ALK5): 850 nM; Kd (ALK1): 13 nM; Kd (ALK3): 1300 nM; Kd (ALK2): 9.6 nM; inhibition at 0.1 µM (EEF2K): -13%; inhibition at 0.1 µM (FYN): 6%
